Laboratory results published in patent US20210283107A1, “Methods to Expand the Spectrum of Gram-Positive Antibiotics” (NORTH CAROLINA STATE UNIVERSITY, priority 2016, published 2021).
Converted amounts (≈) assume the structure as drawn. “And” between values parts separate entries of the source, which are not always exact repeats. Equal entries are not always repeated.

Assays:
[1] = system: A. baumannii strain 5075 (AB5075); assay: Macrolide sensitization / antibiotic resensitization: antibiotic MIC in presence of compound (broth microdilution); type: cell-based, Acinetobacter baumannii; conditions: AB5075; for MIC: Acinetobacter baumannii, antibiotic alone, no compound (control row), read-out: MIC (μg/mL) of the antibiotic
Procedure: A. baumannii 5075 was plated on LB agar, then grown in CAMHB for 6-8 h and this culture was used to inoculate fresh CAMHB (5×10^5 CFU/mL). The resulting suspension was aliquoted (5 mL) into culture tubes and compound, from 100 mM DMSO stock, was added. One aliquot was not treated (control). 1 mL of each sample was transferred to a new culture tube and antibiotic was added. Rows 2-12 of a 96-well microtiter plate were filled with 100 μL/well from the remaining 4 mL bacterial subcultures, allowing the concentration of compound to be kept uniform throughout the antibiotic dilution procedure. Samples containing antibiotic were aliquoted (200 μL) into the corresponding first row wells of the microtiter plate. Row 1 wells were mixed 6 to 8 times then 100 μL was withdrawn and transferred to row 2. Row 2 wells were mixed 6 to 8 times, followed by a 100 μL transfer from row 2 to row 3. This procedure was repeated to serially dilute the rest of the rows of the microtiter plate, with the exception of the final row, to which no antibiotic was added (to check for growth of bacteria in the presence of compound alone). The microtiter plate was then covered, placed in a covered damp plastic container and incubated under stationary conditions at 37° C. After 16-18 hrs minimum inhibitory concentration (MIC) values were recorded as the lowest concentration of antibiotic at which there was no visible growth of bacteria. Experiments were carried out in duplicate each time and repeated at least twice.
The difference in antibiotic MIC between the control (no compound) sample, and the samples containing each compound was recorded as the fold-reduction.
Day Cultures (6 h) were subcultured to 5×10^5 CFU/mL in cation adjusted Mueller-Hinton broth (CAMHB). […] One milliliter of the resulting solution was aliquoted into a separate culture tube and was dosed with antibiotic so that the resulting concentration was the highest desirable concentration to be tested. Bacteria treated with antibiotic alone were used as a control. Row one of a 96-well plate was filled with 200 μL of the antibiotic/compound solution, and the remaining rows were filled with 100 μL of the remaining 4 mL bacterial subculture. The wells in row one were mixed five times before 100 μL was transferred to the following row (row two). Row two was then mixed five times, and 100 μL was transferred to row three. This process was repeated until the second to last row had been reached. The last row is left unexposed to antibiotic in order to serve as a negative control. The antibiotic only treated bacteria was plated by aliquoting 200 μL of the treated bacteria into row one and filling the remaining rows with untreated bacteria from the original bacteria subculture. The rows were mixed in the same way as described above. Plates were covered with Glad Press n'Seal and were incubated under stationary conditions at 37° C. for 16 hours. MIC values were recorded as the lowest concentration at which no bacterial growth was observed. Fold reductions were determined by comparison of the compound treated wells with the antibiotic only treated control wells.

[2] = system: A. baumannii strain 5075 (AB5075); assay: Broth microdilution MIC determination of compound alone; type: cell-based; conditions: Acinetobacter baumannii; compound alone; AB5075; read-out: MIC
Procedure: Our initial screening began by testing a diverse selection of 2-AI compounds from our internal library for their minimal inhibitory concentrations (MIC) against A. baumannii isolate 5075.
(§1) Day Cultures (6 h) were subcultured to 5×10^5 CFU/mL in cation adjusted Mueller-Hinton broth (CAMHB). Aliquots (1 mL) were placed in culture tubes, and compound was added from 100 mM stock solutions, such that the compound concentration equaled the highest concentration tested (200 μM or 64 μg/mL). Samples were then aliquoted (200 μL) into the first row of wells of a 96-well plate, with all remaining wells being filled with 100 μL of initial bacterial subculture. The wells in row one were mixed five times before 100 μL was transferred to the following row (row two). Row two was then mixed five times, and 100 μL was transferred to row three. This processed was repeated until the final row had been mixed. This process provided a serial dilution of the compound. Plates were covered with Glad Press n'Seal and were incubated under stationary conditions at 37° C. for 16 hours. MIC values were recorded as the lowest concentration at which no bacterial growth was observed.

[3] = system: A. baumannii mutant AB1310; assay: MIC against Tn-seq transposon mutant AB1310; type: cell-based; conditions: Acinetobacter baumannii
Procedure: (§2) During individual MIC screening, two mutants, AB522 and AB1310, were identified due to their increased sensitivity to the three macrolide antibiotics and vancomycin when compared to AB 5075 (Table 17).
as §1

[4] = system: A. baumannii mutant AB522; assay: MIC against Tn-seq transposon mutant AB522; type: cell-based; conditions: Acinetobacter baumannii
Procedure: as §2, §1

AB 5075 = assay: Backlight assay for membrane permeability; type: cell-based, Acinetobacter baumannii; conditions: AB5075
Procedure: The assay was initially performed at 10, 20 and 30 μM with compounds 1 and 4 (Table 16). […] When the concentration is lowered to 20 μM, the percent of membrane disrupted also decreases to 78% and 83% respectively. When further decreasing the concentration to 10 μM, the membrane disruption decreases to 39 and 44% respectively. Due to the similar structure and lack of potentiation activity, compound 25 was screened at 10, 20 and 30 μM to compare membrane permeability with that of active compounds. The percent disruption was less than seen with compounds 1 and 4 being 53, 54 and 60% respectively.

AB5075 = assay: H33342 accumulation assay (efflux); type: cell-based, Acinetobacter baumannii; conditions: for H33342 accumulation, fluorescence at 355 and 460 nm: 25 μM CCCP, immediately following exposure
Procedure: In addition to the evaluation of the relationship between compounds 1 and 4 and colistin, the impact of compound 1 on efflux was evaluated using AB5075 and a bisBenzimide H33342 trihydrochloride (H33342) accumulation assay. Using a procedure adapted from Coldham et al. (A 96-well plate fluorescence assay for assessment of cellular permeability and active efflux in Salmonella enterica serovar Typhimurium and Escherichia coli. J Antimicrob Chemother, 2010. 65(8): p. 1655-63) and Richmond et al. (Efflux in Acinetobacter baumannii can be determined by measuring accumulation of H33342 (bis-benzamide). J Antimicrob Chemother, 2013. 68(7): p. 1594-600), the effect of no treatment, a known inhibitor carbonyl cyanide-m-chlorophenyl hydrazone (CCCP), and compound 1 on efflux was analyzed over 30 minutes and in two different treatment variations. Fluorescence was read using excitation and emission filters of 355 and 460 nm, and the values were processed in excel. The first analysis was performed immediately after treating the bacteria with compound 1 at both 10 and 30 μM and CCCP at 25 μM.
The second analysis was performed after exposing the bacteria to compound 1 at 30 μM for 5-hours shaking at 37° C.

[5] = compound at 60 μM vs antibiotic alone
[6] = compound at 30 μM vs antibiotic alone

Nc1nc(-c2ccc(NC(=O)c3ccc(Cl)cc3Cl)cc2)c[nH]1 [Compound 20]
Fold reduction (erythromycin MIC) [1, 5]: 4 fold
MIC [2]: > 200 µM

Nc1nc(-c2ccc(NC(=O)c3ccc(Br)cc3F)cc2)c[nH]1 [Compound 21]
Fold reduction (erythromycin MIC) [1, 5]: 8 fold
MIC [2]: > 200 µM

CC[C@H]1OC(=O)[C@H](C)[C@@H](O[C@H]2C[C@@](C)(OC)[C@@H](O)[C@H](C)O2)[C@H](C)[C@@H](O[C@@H]2O[C@H](C)C[C@H](N(C)C)[C@H]2O)[C@](C)(O)C[C@@H](C)C(=O)[C@H](C)[C@@H](O)[C@]1(C)O [Erythromycin]
MIC [3]: 4 µg/mL (≈ 5.45 µM)
MIC [4]: 2 µg/mL (≈ 2.73 µM)
MIC [1]: 32 µg/mL

CCCCCCCCCCNC(=O)Cn1cc(CCCCCc2c[nH]c(N)n2)nn1.Cl [Compound 6]
Fold reduction (erythromycin MIC) [1, 5]: 4 fold
MIC [2]: > 200 µM

CCCCCCCCCCCNC(=O)CCCc1c[nH]c(C)n1.Cl [Compound 5]
Fold reduction (azithromycin MIC) [1, 6]: 8 fold
Fold reduction (clarithromycin MIC) [1, 6]: 256 fold
Fold reduction (erythromycin MIC) [1, 6]: 16 fold
Azithromycin MIC ([1]; in presence of compound at 30 μM): 8 µg/mL
MIC [2]: 100 µM

CC[C@H]1OC(=O)[C@H](C)[C@@H](O[C@H]2C[C@@](C)(OC)[C@@H](O)[C@H](C)O2)[C@H](C)[C@@H](O[C@@H]2O[C@H](C)C[C@H](N(C)C)[C@H]2O)[C@](C)(O)C[C@@H](C)CN(C)[C@H](C)[C@@H](O)[C@]1(C)O [Azithromycin, azithromycin]
MIC [3]: 4 µg/mL (≈ 5.34 µM)
MIC [4]: 4 µg/mL (≈ 5.34 µM)
MIC [1]: 64 µg/mL

Nc1nc(-c2ccc(NC(=O)c3cccc(Br)c3)cc2)c[nH]1 [Compound 19]
Fold reduction (erythromycin MIC) [1, 5]: 8 fold
MIC [2]: > 200 µM

CCCCCCC(=O)Nc1cccc(-c2c[nH]c(N)n2)c1.Cl [Compound 11]
Fold reduction (erythromycin MIC) [1, 5]: 4 fold
MIC [2]: > 200 µM

CCCCCCCCCCn1c(CCCCCC)cnc1N.Cl [Compound 12]
Fold reduction (erythromycin MIC) [1, 5]: 4 fold
MIC [2]: 100 µM

Nc1nc(-c2ccc(NC(=O)c3ccc(I)cc3)cc2)c[nH]1 [Compound 25]
Disrupted bacterial membrane (%) (AB 5075; compound at 10 μM): 53% and 53.7%
Disrupted bacterial membrane (%) (AB 5075; compound at 20 μM): 54%
Disrupted bacterial membrane (%) (AB 5075; compound at 30 μM): 60%
MIC [2]: > 200 µM

Nc1nc(-c2ccc(NC(=O)c3ccc(Cl)c(Cl)c3)cc2)c[nH]1 [Compound 9]
Fold reduction (clarithromycin MIC) [1, 6]: 64 fold
Fold reduction (erythromycin MIC) [1, 6]: 16 fold
MIC [2]: 100 µM (≈ 34.7 µg/mL)

N#CC(C#N)=NNc1cccc(Cl)c1 [CCCP, carbonyl cyanide-m-chlorophenyl hydrazone, reference compound]
H33342 accumulation, fluorescence at 355 and 460 nm (AB5075; time 0 minutes): 42,713.8 ± 10,482.1
H33342 accumulation, fluorescence at 355 and 460 nm (AB5075; time 10 minutes): 50,618.3 ± 9,944.3
H33342 accumulation, fluorescence at 355 and 460 nm (AB5075; time 20 minutes): 50,928.8 ± 6,944.8
H33342 accumulation, fluorescence at 355 and 460 nm (AB5075; time 30 minutes): 48,907.2 ± 4,873
change in H33342 fluorescence over 30 minutes (AB5075; immediately after treating, compound 1 at both 10 and 30 μM, CCCP at 25 μM): a notable increase in fluorescence
